Results on two molecules are retold here after US20220304916A1, “MODIFIED BLACK SOLDIER FLY LARVAE OIL WITH MODIFIED LAURIC ACID FOR TREATMENT AGAINST BIOFILM FORMATION AND MICROORGANISM GROWTH” (BIO-BEE SDE ELIYAHU LTD, priority 2019, published 2022).

Assay type in all cases: cell-based
Assay [1] has as its system Candida glabrata (CG). Put plainly: Viability on agar plates (MFC). The protocol:
(§1) MBSFL oil (converted, 225, BioBee Sde Eliyahu Ltd, lot 0095-0098.181210-181227) was compared to BSFL oil (before conversion, 215, BioBee Sde Eliyahu Ltd, lot 0030.111217), lauric acid 98% (Sigma-Aldrich, denoted LA) and chlorhexidine acetate (Steinberg, denoted CHX), were analyzed as antimicrobial and anti-biofilm-formation agents in vitro, with respect to Pseudomonas aeruginosa (Gram negative, denoted PA01), Staphylococcus aureus (ATCC, American Type Culture Collection) (Gram positive, denoted SA), Streptococcus mutans (ATCC) (Gram positive, denoted SM), Lactobacillus (ATCC) (Gram positive, denoted L), Candida albicans (ATCC) (yeast, denoted CA) and Candida glabrata (ATCC) (yeast, denoted CG).
(§2) Microbial stocks of the Biofilm Research Laboratory were grown from frozen stock: SM at overnight 37° C. in BHI (brain heart infusion) broth medium in an atmosphere of 5% CO2; L at 37° C. in MRS (de Man, Rogosa and Sharpe) broth medium in an atmosphere of 5% CO2; PAO1 and SA at 37° C. in TSB (Trypticase soy broth) medium; CA and CG at 37° C. in RPMI (Roswell Park Memorial Institute) medium.
(§3) BSFL oil and MBSFL oil were prepared in DDW by heating at 100° C. LA was prepared at 50% Ethanol/50% DDW (doubly distillated water) and heated constantly to prevent solidifying in the tube. Maximum concentration of tested agents was the same (2.7% of lauric acid content). CHX was prepared in DDW
(§4) To examine the effects of MBSFL oil on microorganism's viability, equal amounts (5 μl) of bacterial suspension exposed to each tested concentration of agent was plated on agar plates. Plates were incubated overnight at 37° C. Colony growth was recorded as non-affected by agent's viable bacteria. Minimal Bactericidal Concentration (MBC) was recorded as no colony growth. Minimal Fungicidal Concentration (MFC) was recorded as no fungal growth.

For assay [2], the system named is Candida albicans (CA). Put plainly: Viability on agar plates (MFC). The protocol: as §1, §2, §3, §4
For assay [3], the system named is Staphylococcus aureus (SA). Put plainly: Viability on agar plates (MBC). As to the method: as §1, §2, §3, §4
The test system of assay [4] is Streptococcus mutans (SM). Put plainly: Viability on agar plates (MBC). As to the method: as §1, §2, §3, §4
The test system of assay [5] is Lactobacillus (L). Put plainly: Viability on agar plates (MBC). As to the method: as §1, §2, §3, §4
Assay [6] has as its system Pseudomonas aeruginosa (PAO1). Put plainly: Viability on agar plates (MBC). The protocol:
as §1, §2, §3, §4

For assay [7], the system named is Staphylococcus aureus (SA). The assay is described as follows: Biofilm formation, crystal violet staining. As to conditions: 24 h. The protocol: as §1, §2, §3
(§5) To examine the effects of MBSFL oil on biofilm formation by the microorganisms, assays for all of the tested agents were performed as described above except of growth medium used which was MRS/BHI supplemented with 1% sucrose and TSB/RPMI supplemented with 1% glucose. After incubation for 24 h, spent media and free-floating bacteria/fungi were removed by gentle aspiration and the wells were washed twice with phosphate-buffered saline (PBS, pH 7.4). The biofilm was then quantified by crystal violet staining. Briefly, 0.02% crystal violet was added into wells for 45 min, which were then washed twice with DDW to remove unbound dye. After adding 200 μl of 30% acetic acid into each well, the plate was shaken for 10 min to release the dye and the biofilm was quantified by measuring the absorbance at 595 nm using a Genius plate reader Spectrophotometer (Tecan). Assay was performed in triplicates.

Assay [8] has as its system Candida glabrata (CG). Put plainly: Biofilm formation, crystal violet staining. As to the method:
as §1, §2, §3, §5

Assay [9] relates to Streptococcus mutans (SM). The assay is described as follows: Biofilm formation, crystal violet staining. As to conditions: 24 h. The protocol:
as §1, §2, §3, §5

Assay [10] has as its system Pseudomonas aeruginosa (PAO1). The assay is described as follows: Biofilm formation, crystal violet staining. The protocol: as §1, §2, §3, §5
Assay [11] concerns Candida albicans (CA). Put plainly: Biofilm formation, crystal violet staining. The following applies: 24 h. As to the method: as §1, §2, §3, §5
The subject of assay [12] is Staphylococcus aureus (SA). Put plainly: Planktonic growth, OD 595 nm after 24 h. The protocol:
as §1, §2, §3
(§6) To examine the effects of MBSFL oil on microorganism's growth (planktonic conditions), serial 1:2 dilutions of each tested agent in appropriate medium (BSFL, MBSFL and LA from 2.7 to 0.04%; CHX from 20 μg/ml to 0.3 μg/ml) were prepared in a polystyrene flat-bottomed 96-well microplate. Wells with no compounds and those with bacteria served as positive controls. Wells with no bacteria and with compound served as blanks. An equal volume (100 μl) of the each tested bacterial and fungal suspension at optical density (OD)595=0.02 and 0.05, respectively, was added to each well. After a 24 h incubation, growth was monitored by recording the OD at 595 nm using a Genius plate reader Spectrophotometer (Tecan). The assay was performed in triplicates.

The subject of assay [13] is Candida glabrata (CG). The assay is described as follows: Planktonic growth, OD 595 nm after 24 h. As to the method:
as §1, §2, §3, §6

The test system of assay [14] is Streptococcus mutans (SM). The assay is described as follows: Planktonic growth, OD 595 nm after 24 h. The protocol:
as §1, §2, §3, §6

In assay [15] the test system is Lactobacillus (L). The assay is described as follows: Planktonic growth, OD 595 nm after 24 h. As to the method: as §1, §2, §3, §6
For assay [16], the system named is Pseudomonas aeruginosa (PAO1). The assay is described as follows: Planktonic growth, OD 595 nm after 24 h. As to the method:
as §1, §2, §3, §6

The subject of assay [17] is Candida albicans (CA). The assay is described as follows: Planktonic growth, OD 595 nm after 24 h. The protocol: as §1, §2, §3, §6

On to `CC(=O)O.CC(=O)O.NC(=N\CCCCCC/N=C(N)/N=C(\N)Nc1ccc(Cl)cc1)/N=C(\N)Nc1ccc(Cl)cc1` [CHX, chlorhexidine acetate], for which the MFC against Candida glabrata (CG) [1] came out at 2.5 µg/mL; in the assay on Candida albicans (CA) [2], 5 µg/mL. The MBC worked out at 10 µg/mL in [3], 0.625 µg/mL in [4], 2.5 µg/mL against Lactobacillus (L) [5] and 20 µg/mL in assay [6]. The “dose inhibiting biofilm formation” value in assay [7] was determined as 2.5 µg/mL; with Candida glabrata (CG) [8] (24 h), 2.5 µg/mL; in [9], 0.625 µg/mL; in the assay with Candida albicans (CA) [11] it was 5 µg/mL. In addition, in assay [10] (PAO1 biofilm, 24 h), the “dose of total inhibition of biofilm formation” value was determined as 10 µg/mL. Besides, the “dose inhibiting growth of SA” value in assay [12] (planktonic, 24 h) came out at 2.5 µg/mL. Besides, the “dose inhibiting growth of CG” value with Candida glabrata (CG) [13] was determined as 2.5 µg/mL. In addition, the “dose inhibiting growth of SM” value in assay [14] is 0.625 µg/mL. In addition, the MIC in the assay with Lactobacillus (L) [15] amounted to 2.5 µg/mL. The “dose of total inhibition of PAO1 growth” value in [16] worked out at 10 µg/mL. The “dose inhibiting growth of CA” value in the assay on Candida albicans (CA) [17] amounted to 5 µg/mL.

`CCCCCCCCCCCC(=O)O` [LA, lauric acid] displayed an MFC in the assay with Candida glabrata (CG) [1] of 2.7%. In the assay on Candida albicans (CA) [2], the “Minimal Fungicidal Concentration (MFC)” value was 2.7%. The values for the MBC (in [3]; in assay [4]; with Lactobacillus (L) [5]) were 0.67%, 0.33% and 0.67%, respectively. In assay [6], the “Minimal Bactericidal Concentration (MBC)” value is reported as “exerted MBC/MFC for all tested microbes, except PAO1”. For the same molecule, the “dose at which biofilm formation was totally or almost totally inhibited” value in assay [7] was found to be 0.67%. Further, the figures for the “effect on biofilm formation (in words)” value (with Candida glabrata (CG) [8]; in assay [10] (all concentrations tested)) were “effective against biofilm formation of CG but with less impact” and “dose-dependently increased biomass”, respectively. Moreover, the “dose of total inhibition of biofilm formation” value in assay [9] was found to be 0.16%. Besides, the “dose at which biofilm formation was almost totally inhibited” value in the assay on Candida albicans (CA) [11] came out at 0.67%. The “reduction of SA growth” value in assay [12] (lowest tested dose of 0.04%) is 90%. The MIC with Candida glabrata (CG) [13] was 2.7%; in assay [14], 0.33%; in the assay with Lactobacillus (L) [15], 0.33%; with Candida albicans (CA) [17], 1.35%.
